Experimental data as given in ChEMBL document CHEMBL4706683 (J Med Chem, 2021).

Columns and labels:
Plasmodium falciparum = experiment: Antiplasmodial activity against Plasmodium falciparum C2A infected in human erythrocytes assessed as reduction in parasite growth incubated for 72 hrs by Giemsa staining based light microscopic method; type: functional, organism-based; settings: Erythrocyte
[1] = biological target: T1, NAD-dependent protein deacetylase sirtuin-2 (Homo sapiens, UniProt Q8IXJ6); experiment: Inhibition of human C-terminal His-tagged SIRT2 (50 to 356 residues) expressed in Escherichia coli using Ac-peptide as substrate preincubated for 15 mins followed by substrate addition and incubated for 240 mins followed by trypsin addition and further incubated for 120 mins
T1 sequence (Q8IXJ6 whole entry): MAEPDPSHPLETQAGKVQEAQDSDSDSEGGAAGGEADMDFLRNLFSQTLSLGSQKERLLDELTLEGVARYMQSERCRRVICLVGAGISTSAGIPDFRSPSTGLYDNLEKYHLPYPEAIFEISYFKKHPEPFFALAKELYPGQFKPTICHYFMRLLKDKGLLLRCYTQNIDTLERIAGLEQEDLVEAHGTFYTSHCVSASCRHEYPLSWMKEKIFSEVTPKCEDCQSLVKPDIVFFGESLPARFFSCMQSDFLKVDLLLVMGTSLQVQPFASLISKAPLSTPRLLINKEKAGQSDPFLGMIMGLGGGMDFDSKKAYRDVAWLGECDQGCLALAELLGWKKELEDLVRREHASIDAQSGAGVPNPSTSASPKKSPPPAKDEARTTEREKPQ

HEK-293T = experiment: Cytotoxicity against human HEK293T cells assessed as reduction in cell viability incubated for 72 hrs by cell titer glo assay; type: cell-based

Cl.O=C(NO)c1cnc(N2CCC3(CCN(Cc4c[nH]c5ccccc45)C3)CC2)nc1
IC50 (Plasmodium falciparum): 4.5 nM | IC50 [1]: > 10000 nM | IC50 (HEK-293T): 241 nM
